In PubChem BioAssay (NCI):
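A five-concentration, 48-hour dose response in 96-well plates underlies each endpoint, interpolated linearly between surrounding concentrations. The concentration for full growth arrest is given as TGI.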

How the values were obtained:
Test in all cases: NCI anticancer screen, dose series, 48 h
[1] = tested on: NCI-H522 lung
[2] = tested on: UO-31 renal
[3] = tested on: NCI-H460 lung
[4] = tested on: MALME-3M melanoma
[5] = tested on: CCRF-CEM leukemia
[6] = tested on: TK-10 renal
[7] = tested on: T-47D breast
[8] = tested on: OVCAR-5 ovarian
[9] = tested on: U251 CNS
[10] = tested on: HL-60(TB) leukemia
[11] = tested on: UACC-62 melanoma
[12] = tested on: SW-620 colon
[13] = tested on: RXF 393 renal
[14] = tested on: OVCAR-4 ovarian

SMILES | TGI [1] [µM] | TGI [2] [µM] | TGI [3] [µM] | TGI [4] [µM] | TGI [5] [µM] | TGI [6] [µM] | TGI [7] [µM] | TGI [8] [µM] | TGI [9] [µM] | TGI [10] [µM] | TGI [11] [µM] | TGI [12] [µM] | TGI [13] [µM] | TGI [14] [µM]
CCC(=O)NC(NNS(=O)(=O)c1ccc(C)cc1)(C(F)(F)F)C(F)(F)F | 62.4 | > 100 | > 100 | > 100 | > 100 | > 100 | > 100 | > 100 | > 10 | > 100 | > 100 | > 100 | 82.9 | –
CC(C)(C)C1CC[C@H](O)[C@H]([C@@H](O)CC2CC(=O)N(c3ccccc3)C(=O)C2)C1 (stereo not given in full) | > 100 | > 100 | > 100 | > 100 | > 100 | > 100 | – | > 100 | > 100 | 77.5 | 74.9 | > 100 | > 100 | > 100
CC(C)(C)c1cc(C(C)(C)C)c(SSc2c(C(C)(C)C)cc(C(C)(C)C)c(O)c2O)c(O)c1O | 16.6 | 18.6 | 13.2 | 36 | 7.5 | – | 27.2 | 31.3 | 22.2 | 14.6 | 18.8 | 24 | 47.2 | 15.5
CSCCCNC(=O)c1csc(-c2csc(CCNC(=O)CNC(=O)OC(C)(C)C)n2)n1 | > 100 | > 100 | > 100 | > 100 | > 100 | > 100 | – | > 100 | > 100 | – | > 100 | > 100 | > 100 | > 100
C[C@]12CC/C(=N\OCCN3CCCC3)C=C1CCC1C2CC[C@@]2(C)C1CC[C@]2(C)O (stereo not given in full) | 8.57 | 24.4 | 16.3 | 18.7 | 9.6 | 37 | 64 | > 100 | 20.2 | – | 11.8 | – | 75.5 | 82.4
CCOP(=O)(OCC)/C(C#N)=C/c1cccn1C | > 100 | 99.5 | > 100 | > 100 | 89 | > 100 | > 100 | > 100 | > 100 | – | > 100 | > 100 | > 100 | > 100
NNC(=O)c1cc(Cl)ccc1NC(=O)C12CC3CC(CC(C3)C1)C2 | > 100 | 45.4 | > 100 | 68.6 | – | > 100 | > 100 | 53.9 | > 100 | 94.2 | > 100 | > 100 | > 100 | > 100
N#Cc1ccc(N=NN2CCCC2)cc1 | > 100 | > 100 | > 100 | – | > 100 | > 100 | > 100 | > 100 | > 100 | > 100 | > 100 | > 100 | > 100 | > 100
COC(=O)C1=CCC[C@H]2[C@@]1(COC(C)=O)CC[C@@H](C)[C@]2(C)CC(=O)c1ccoc1 | 22 | > 50 | > 50 | – | 25.3 | > 50 | 35.7 | > 50 | > 50 | 24.5 | 20.1 | > 50 | > 50 | > 50
Cc1cc(O)c(C(O)c2ccccn2)cc1O (stereo not given) | 14.7 | 33.5 | > 100 | 40.1 | 38.4 | 31.8 | – | 33.8 | > 100 | 53 | 28.7 | 41.1 | 30.2 | –
CCCCCCCCCCCC(=O)OCC(O)CO (stereo not given) | > 100 | > 100 | > 100 | – | > 100 | > 100 | > 100 | > 100 | > 100 | 42.3 | > 100 | > 100 | – | > 100
O=C1/C(=C/c2ccc([N+](=O)[O-])cc2)Oc2cc(O)ccc21 | 65.6 | 51 | > 100 | – | 79.2 | 82.5 | > 100 | – | 93 | 37.4 | > 100 | > 100 | > 100 | > 100
COc1ccc(/C=N/n2c(Cc3ccccc3)n[nH]c2=O)c(OC)c1 | > 100 | > 63.1 | > 92.5 | > 100 | > 100 | 84.1 | > 100 | > 100 | > 65.1 | – | > 100 | > 100 | > 63.2 | > 100
CCOC1OC(CO[Si](C)(C)C(C)(C)C)C(O)CC1n1ccc(=O)[nH]c1=O (stereo not given) | 45.6 | > 100 | > 100 | > 100 | – | > 100 | > 100 | > 100 | > 100 | – | > 100 | 52 | > 100 | > 100
O=C(O)c1cc(-c2ccc3cc(O)c(O)cc3c2)ccc1O | > 12.5 | > 12.5 | > 12.5 | > 12.5 | > 12.5 | > 12.5 | > 12.5 | > 12.5 | > 12.5 | > 12.5 | > 12.5 | > 12.5 | – | –
CC1=NN(c2nc(N)nc(CCl)n2)C(C)(C)C1 | 2.94 | 19.7 | 36.2 | – | > 52.7 | > 100 | > 100 | > 78 | > 63.3 | > 24.9 | 32.5 | > 60.2 | > 100 | 27
COc1cccc(C2c3cc4c(cc3OC(N3CCCC3)C2c2ccccc2)OCO4)c1O (stereo not given) | 58.4 | 20.1 | 33.7 | – | 24.6 | 73.6 | > 100 | 75.2 | – | – | 47.2 | 25.4 | – | –
ON[C@@H]1C=C[C@H](n2cnc3c(NC4CC4)ncnc32)C1 | > 100 | > 100 | > 100 | > 100 | > 100 | > 100 | > 100 | > 100 | > 100 | – | > 100 | > 100 | > 100 | > 100
O=C1CSc2ccnc(=O)n21 | > 100 | > 100 | > 100 | > 100 | > 100 | > 100 | – | > 100 | > 100 | > 100 | > 100 | > 100 | > 100 | > 100
COc1cc2c(cc1OCCCN1CCOCC1)N=C[C@@H]1CCCN1C2=O | 3.97 | > 100 | > 100 | 33.6 | 25.3 | > 100 | – | 59.9 | > 100 | 29.6 | 29.2 | 13.8 | 8.13 | 40.1
Fc1nc(-c2c3ccccc3c3sc4ccccc4n23)nc(N2CCOCCOCCOCCOCC2)n1 | > 100 | > 100 | > 100 | > 100 | 93.4 | > 100 | – | > 100 | > 100 | – | > 100 | > 100 | 51.6 | > 100
Cc1ccccc1-n1c(=O)nc2n(-c3ccc(C(C)(C)C)cc3)c3ccccc3cc-2c1=O | 47.6 | 95.1 | 28.7 | – | 50.5 | > 100 | > 100 | 63.6 | 28.3 | 43.2 | 41 | 33.5 | 39 | 92.5
COc1ccccc1NC(=S)Nc1ccccn1 | > 100 | > 100 | > 100 | > 100 | > 100 | > 100 | – | > 100 | > 100 | > 100 | > 100 | > 100 | > 100 | > 100
CCOC(=O)/C(=C\n1c(=O)sc2ccccc21)C(=O)c1ccccc1 | > 100 | > 100 | > 100 | > 100 | > 100 | – | > 100 | > 100 | > 100 | > 100 | > 100 | > 100 | > 100 | > 100
CC(C)CC1C(=O)OC(C)(C)OC1=O | > 100 | > 100 | > 100 | – | > 100 | > 100 | > 100 | > 100 | > 100 | – | > 100 | > 100 | > 100 | > 100
N=c1oc2ccccc2cc1C(=O)Nc1ccccn1 | – | – | > 100 | 54 | > 100 | – | > 100 | > 100 | > 100 | > 100 | > 100 | > 100 | > 100 | > 100
O=[N+]([O-])/C(C(Cl)=C(Cl)Cl)=C(\NCc1ccccc1)Sc1ccccc1 | – | 38.3 | > 100 | 33.3 | > 100 | – | 71.7 | > 100 | > 100 | – | > 100 | 42.6 | – | 75.4
O=C(O)CNc1ncc2c(n1)-c1ccccc1OC2 | – | > 100 | > 100 | > 100 | > 100 | > 100 | – | > 100 | > 100 | > 100 | > 100 | > 100 | > 100 | > 100
